Reference: US10538555B2, “Macrocyclic inhibitors of the PD-1/PD-L1 and CD80(B7-1)/PD-L1 protein/protein interactions” (BRISTOL-MYERS SQUIBB COMPANY, priority 2014, dated 2020)
Like-named read-outs stand apart in the source and are kept apart here. Where a SMILES comes first, the peptide text is derived from it. Bridges are numbered along the chain shown (N, C = ends). [ ]: non-standard residue; d: D form. ξ: configuration not given here. Phe(3,4-F2) = N[C@@H](Cc1ccc(F)c(F)c1)C(=O)O; Phe(4-F) = N[C@@H](Cc1ccc(F)cc1)C(=O)O; NMeF = CN[C@@H](Cc1ccccc1)C(=O)O; dNMeF = CN[C@H](Cc1ccccc1)C(=O)O; hIle(4ξ) = CCC(C)C[C@H](N)C(=O)O; dHyp = O=C(O)[C@H]1C[C@H](O)CN1; NMehSer = CN[C@@H](CCO)C(=O)O; NMeNle = CCCC[C@H](NC)C(=O)O; NMeV = CN[C@H](C(=O)O)C(C)C; dPip = O=C(O)[C@H]1CCCCN1; Orn = NCCC[C@H](N)C(=O)O

Target: T1, Human PD-L1/PD-1 (Homo sapiens, UniProt Q9NZQ7)
T1 construct: TVMV protease cleavage site (C); made in house; host or cells: HEK293T cells
T1 sequence (Q9NZQ7 with tags, fused parts or gaps): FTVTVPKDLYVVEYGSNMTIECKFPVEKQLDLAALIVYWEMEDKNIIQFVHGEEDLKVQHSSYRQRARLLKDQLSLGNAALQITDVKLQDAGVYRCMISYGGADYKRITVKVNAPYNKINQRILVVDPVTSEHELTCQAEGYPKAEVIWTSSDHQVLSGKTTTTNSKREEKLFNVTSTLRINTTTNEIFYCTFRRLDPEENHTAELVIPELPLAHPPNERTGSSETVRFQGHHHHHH
Experiment: HTRF Human PD-L1/PD-1 binding assay (PD-1-Ig/PD-L1-His)
Conditions: PD-L1-His 10 nM, PD-1-Ig 20 nM
Method in brief: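 Soluble HEK293T-expressed proteins: hPD-L1-His 10 nM, hPD-1-Ig 20 nM final. Cpd + PD-L1 15 min, + PD-1 15 min, + Eu anti-Ig 1 nM/APC anti-His 20 nM 30 min. Buffer dPBS, 0.1% BSA, 0.05% Tween-20. TR-FRET 665/620.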

[1] = class symbol, read-out: HTRF Human PD-L1/PD-1 Binding Assay IC50 Range

In the case of `COCC[C@H]1C(=O)N2C[C@@H](O)C[C@@H]2C(=O)N[C@@H](CC(=O)O)C(=O)N[C@@H](C(C)C)C(=O)N(C)[C@@H](Cc2ccccc2)C(=O)N[C@@H](Cc2ccc(OC)cc2)C(=O)N2C[C@@H](O)C[C@@H]2C(=O)N[C@@H](Cc2c[nH]c3ccccc23)C(=O)N[C@@H](Cc2ccc(O)cc2)C(=O)N[C@@H](CCCN)C(=O)N[C@H](C(=O)NCC(N)=O)CSCC(=O)N[C@@H](Cc2ccc(F)c(F)c2)C(=O)N(C)[C@@H](Cc2ccccc2)C(=O)N1C` [Example 9239] ({CH2CO}-[Phe(3,4-F2)][NMeF][NMehSer](Me)[dHyp]DV[NMeF]Y(Me)[dHyp]WY[Orn]CG-NH2; thioether N-13), the IC50 (read-out: HTRF Human PD-L1/PD-1 Binding Assay IC50) is reported as 0.0038 µM.
In the case of `COCC[C@H]1C(=O)N2C[C@@H](O)C[C@@H]2C(=O)N[C@@H](CC(=O)O)C(=O)N[C@@H](C(C)C)C(=O)N(C)[C@H](Cc2ccccc2)C(=O)N[C@@H](Cc2ccc(OC)cc2)C(=O)N2C[C@@H](O)C[C@@H]2C(=O)N[C@@H](Cc2c[nH]c3ccccc23)C(=O)N[C@@H](Cc2ccc(O)cc2)C(=O)N[C@@H](CCCN)C(=O)N[C@H](C(=O)NCC(N)=O)CSCC(=O)N[C@@H](Cc2ccc(F)c(F)c2)C(=O)N(C)[C@@H](Cc2ccccc2)C(=O)N1C` [Example 9240] ({CH2CO}-[Phe(3,4-F2)][NMeF][NMehSer](Me)[dHyp]DV[dNMeF]Y(Me)[dHyp]WY[Orn]CG-NH2; thioether N-13), the IC50 [1] is reported as 0.001 to 0.0099 µM.
`CCCC[C@H]1C(=O)N2CCC[C@@H]2C(=O)N[C@@H](CC(=O)O)C(=O)N[C@@H](C(C)C)C(=O)N(C)[C@@H](C(C)C)C(=O)N[C@@H](Cc2ccc(O)cc2)C(=O)N2CCC[C@@H]2C(=O)N[C@@H](Cc2c[nH]c3ccccc23)C(=O)N[C@@H](Cc2ccc(O)cc2)C(=O)N[C@@H](CC(C)C)C(=O)N[C@H](C(=O)NCC(N)=O)CSCC(=O)N[C@@H](Cc2ccc(F)cc2)C(=O)N(C)[C@@H](Cc2ccccc2)C(=O)N1C` [Example 9241] ({CH2CO}-[Phe(4-F)][NMeF][NMeNle][dP]DV[NMeV]Y[dP]WYLCG-NH2; thioether N-13) was tested, and the IC50 [1] was 1 to 10 µM.
With `CCCC[C@H]1C(=O)N2CCC[C@@H]2C(=O)N[C@@H](CC(=O)O)C(=O)N[C@@H](C(C)C)C(=O)N(C)[C@@H](C(C)C)C(=O)N[C@@H](Cc2ccc(O)cc2)C(=O)N2CCCC[C@@H]2C(=O)N[C@@H](Cc2c[nH]c3ccccc23)C(=O)N[C@@H](Cc2ccc(O)cc2)C(=O)N[C@@H](CC(C)CC)C(=O)N[C@H](C(=O)NCC(N)=O)CSCC(=O)N[C@@H](Cc2ccc(F)cc2)C(=O)N(C)[C@@H](Cc2ccccc2)C(=O)N1C` (stereo partly drawn) [Example 9242] ({CH2CO}-[Phe(4-F)][NMeF][NMeNle][dP]DV[NMeV]Y[dPip]WY[hIle(4ξ)]CG-NH2; thioether N-13) the IC50 [1] was 1 to 10 µM.
With `CCCC[C@H]1C(=O)N2CCC[C@@H]2C(=O)N[C@@H](CC(=O)O)C(=O)N[C@@H](C(C)C)C(=O)N(C)[C@@H](C(C)C)C(=O)N[C@@H](Cc2ccc(O)cc2)C(=O)N2CCC[C@@H]2C(=O)N[C@@H](Cc2c[nH]c3ccccc23)C(=O)N[C@@H](Cc2ccc(O)cc2)C(=O)N[C@@H](CCCN)C(=O)N[C@H](C(=O)NCC(N)=O)CSCC(=O)N[C@@H](Cc2ccc(F)cc2)C(=O)N(C)[C@@H](Cc2ccccc2)C(=O)N1C` [Example 9243] ({CH2CO}-[Phe(4-F)][NMeF][NMeNle][dP]DV[NMeV]Y[dP]WY[Orn]CG-NH2; thioether N-13) the IC50 [1] was 1 to 10 µM.
In the case of `CCCC[C@H]1C(=O)N2CCC[C@@H]2C(=O)N[C@@H](CC(=O)O)C(=O)N[C@@H](C(C)C)C(=O)N(C)[C@@H](C(C)C)C(=O)N[C@@H](Cc2ccc(O)cc2)C(=O)N2CCCC[C@@H]2C(=O)N[C@@H](Cc2c[nH]c3ccccc23)C(=O)N[C@@H](Cc2ccc(O)cc2)C(=O)N[C@@H](CCCN)C(=O)N[C@H](C(=O)NCC(N)=O)CSCC(=O)N[C@@H](Cc2ccc(F)cc2)C(=O)N(C)[C@@H](Cc2ccccc2)C(=O)N1C` [Example 9244] ({CH2CO}-[Phe(4-F)][NMeF][NMeNle][dP]DV[NMeV]Y[dPip]WY[Orn]CG-NH2; thioether N-13), the IC50 [1] is reported as 1 to 10 µM.
